Key:
Format in all cases: biochemical, Dictyoglomus thermophilum
Xln-DT [1] = tested on: T1, Xln-DT; assay: glucose release, Michaelis-Menten; conditions: 0.2-10 g/L substrate
T1 construct: recombinant, pET-28a-xln-DT in E. coli BL21(DE3), heat treatment and Ni-NTA; ~55 kDa on SDS-PAGE
Source text: glucose release, Michaelis-Menten on Xln-DT

Xln-DT [2] = tested on: T1, Xln-DT; assay: pNP release at […] nm, Michaelis-Menten; conditions: 50 mM sodium phosphate pH 6.0, optimal temperature
Xln-DT [3] = tested on: T1, Xln-DT; assay: xylose release, Michaelis-Menten; conditions: 0.2-10 g/L substrate
Source text: xylose release, Michaelis-Menten on Xln-DT

| SMILES | Km (Xln-DT [2]) | also measured |
| --- | --- | --- |
| OC[C@H]1O[C@@H](O[C@H]2[C@H](O)[C@@H](O)C(O)O[C@@H]2CO)[C@H](O)[C@@H](O)[C@@H]1O (some centres unmarked) [Cellobiose] | – | Km (Xln-DT [1]): 11 mM |
| OC1OC[C@@H](O[C@@H]2OC[C@@H](O)[C@H](O)[C@H]2O)[C@H](O)[C@H]1O (some centres unmarked) [X2, Xylobiose] | – | Km (Xln-DT [3]): 930 µM |
| O=[N+]([O-])c1ccc(O[C@@H]2O[C@@H](CO)[C@H](O)[C@H]2O)cc1 [pNPA] | 1.02 mM | – |

Second part, led by results:

| Km (Xln-DT [2]) | SMILES | also measured |
| --- | --- | --- |
| 1.66 mM | O=[N+]([O-])c1ccc(O[C@@H]2OC[C@@H](O)[C@H](O)[C@H]2O)cc1 [pNPX] | – |
| 3.67 mM | O=[N+]([O-])c1ccc(O[C@@H]2O[C@H](CO)[C@@H](O)[C@H](O)[C@H]2O)cc1 [pNPG] | – |
